According to patent US20250064795A1, “METHODS OF TREATING CORONAVIRUS DISEASE AND COMPOUNDS FOR SAME” (Board of Supervisors of Louisiana State University and …, priority 2021, published 2025):
Like-named read-outs stand apart in the source and are kept apart here.

Tests used:
[1] = system: SARS-CoV-2 (USA-WA1/2020 Isolate); experiment: In vitro inhibition of SARS-CoV-2 in Calu-3 cells (immunostaining assay); type: cell-based
in vitro = settings: human
[2] = cited from earlier work
[3] = conventional Topotecan therapy; cited from earlier work

Compound	IC50 ([1]; Severe acute respiratory syndrome coronavirus 2, Calu-3) [nM]	inhibition of SARS-CoV-2 ([1]; Calu-3 cells, FIG. 1)	IC50 ([1]; Severe acute respiratory syndrome coronavirus 2, Calu-3 cells, 24 h pretreatment, MOI 0.005, 48 h after inoculation, FIG. 1, read-out: IC50 of inhibition of SARS-CoV-2) [nM]	IC50 ([1]; Severe acute respiratory syndrome coronavirus 2, replicate experiments, Calu-3 cells, FIG. 3 and FIG. 4B, read-out: IC50) [nM]	CC50 (in vitro) [nM]	plasma elimination half-life ([2]; in vivo) [h]	time of peak plasma concentrations ([2]; oral administration) [h]	dose-limiting toxicity [3]
CCC(CC)COC(=O)[C@H](C)N[P@](=O)(OC[C@H]1O[C@@](C#N)(c2ccc3c(N)ncnn23)[C@H](O)[C@@H]1O)Oc1ccccc1 [Remdesivir]	116							
CC[C@@]1(O)C(=O)OCc2c1cc1n(c2=O)Cc2cc3c(CN(C)C)c(O)ccc3nc2-1 [Topotecan]		Complete or near complete inhibition	35	9.36	169	2 to 3	1 to 2	bone marrow suppression
